What is called LD50 is the dose at which mortality reaches 50%. Lower therefore signals a more toxic substance.

One series can be described thus: Acute toxicity (DL50). To be noted: mouse, in vivo.
Series [1] concerns cellules de leucémie L 1210. Briefly: Oncostatic activity against L 1210 leukaemia (i.p.) in mice, survival T/C. It is filed as in vivo, souris F1, (DBA/2XC57 B 1/6). To be noted: for Dose optimale / T/C max / M.E.D.I. / efficacité (comparison in words): L 1210 i.p.; for T/C max: treated days 1, 5 and 9, suspension in oil, T/C = ∞ when 50 % of the animals are cured, T/C > 125 % = active; for M.E.D.I.: dose plateau of maximum activity corresponding to T/C = ∞; for I = DL50 / D.Opt.: therapeutic index, DL50 divided by optimal dose; for efficacité (comparison in words): 2-chloro-éthylamides compared with the known -NH2 amides (N° 10, 14 et 16). From the text: L'activité oncostatique de certains composés de l'invention par comparaison à d'autres nitrosourées connues a été déterminée en suivant le protocole expérimental suivant : • Des souris F1, (DBA/2XC57 B 1/6) sont inoculées avec 10^5 cellules de leucémie L 1210 par voie intrapéritonéale au jour 0 et divisées en 5 groupes. Le premier est le groupe de contrôle et les quatre autres sont traités avec les produits à tester à différentes concentrations, aux jours 1,5 et 9. Les composés sont injectés en suspension dans l'huile. La mortalité des animaux est observée et l'autopsie indique si elle est due à la leucémie ou à l'action toxique de la drogue. Les résultats, pour chaque dose de produit, sont exprimés en T/C (%) (T représente la médiane de survie du groupe traité et C la médiane de survie du groupe témoin T/C = ∞ quand 50 % des animaux sont guéris. T/C > 125 % signifie qu'une drogue est active.
Ces essais ont été effectués à l'aide de composés de formule [formula] pour différents amino-acides et différentes significations du substituant X (substituant côté C terminal).
Les significations de X sont les suivantes : • 1) Composés de l'invention : X = -NH-CH2-CH2Cl, -N(CH2-CH2-Cl)2 et -NH-C6H4-N(CH2-CH2-Cl)2 • 2) Composés en dehors de l'invention : X = -NH2 et -NH-C^H3.
Le tableau précédent rapporte les valeurs DL50, T/C, M.E.D.I. (Maximum efficace dose internal = plateau d'activité maximum correspondant à T/C = ∞), dose optimale et Indice thérapeutique.

Regarding `C[C@H](NC(=O)N(CCCl)N=O)C(=O)NCCCl` [compound 1], the LD50 in “Acute toxicity (DL50)” is 35 mg/kg. In series [1], the Dose optimale was 20 mg/kg, the T/C max entry was “∞”, the M.E.D.I. fell in the range of 10 to 30 mg/kg and the “I = DL50 / D.Opt.” value is 1,75.

Regarding `O=NN(CCCl)C(=O)NCCC(=O)NCCCl` [compound 2], in “Acute toxicity (DL50)”, the DL50 was 100 mg/kg. Also, in series [1], the Dose optimale is reported as 35 mg/kg, the T/C max entry is given as “∞”, the M.E.D.I. is 20 to 50 mg/kg and the “I = DL50 / D.Opt.” value is 2,86.

`O=NN(CCCl)C(=O)N[C@@H](CC(=O)NCCCl)C(=O)NCCCl` [compound 3]: the median lethal dose (LD50) in “Acute toxicity (DL50)” was 130 mg/kg. In series [1], the Dose optimale was 37 mg/kg, the T/C max result is given as “∞”, the M.E.D.I. fell in the range of 25 to 50 mg/kg and the “I = DL50 / D.Opt.” value is on record as 3,50.

`O=NN(CCCl)C(=O)NCCCC(=O)NCCCl` [compound 7] returned a DL50 in the series “Acute toxicity (DL50)” of 125 mg/kg. Further, in series [1], the Dose optimale is 35 mg/kg, the T/C max entry is “∞”, the M.E.D.I. lay within 20 to 50 mg/kg and the “I = DL50 / D.Opt.” value is on record as 3,57.

`CC(C)C[C@H](NC(=O)N(CCCl)N=O)C(=O)NCCCl` [compound 9]: the LD50 in the series “Acute toxicity (DL50)” stood at 64 mg/kg. For the same molecule, in series [1], the “efficacité (comparison in words)” value is recorded as “beaucoup plus efficaces”, the Dose optimale was found to be 35 mg/kg, the T/C max entry is listed as “∞” and the M.E.D.I. lay in the range of 15 to 50 mg/kg. Further, the “I = DL50 / D.Opt.” value in series [1] was 1,80.

In the case of `O=NN(CCCl)C(=O)NCCCC[C@H](NC(=O)N(CCCl)N=O)C(=O)NCCCl` [compound 12], in the series “Acute toxicity (DL50)”, the LD50 was determined as 135 mg/kg. Also, in series [1], the Dose optimale came out at 30 mg/kg, the T/C max entry is listed as “∞”, the M.E.D.I. lay within 20 to 40 mg/kg and the “I = DL50 / D.Opt.” value is 4,50.

The molecule `CSCC[C@H](NC(=O)N(CCCl)N=O)C(=O)NCCCl` [compound 13] returned an LD50 in the series “Acute toxicity (DL50)” of 32 mg/kg. Moreover, in series [1], the “efficacité (comparison in words)” value is reported as “beaucoup plus efficaces”, the Dose optimale is listed as 20 mg/kg, the T/C max entry is “∞” and the M.E.D.I. is 10 to 30 mg/kg. Further, the “I = DL50 / D.Opt.” value in series [1] is on record as 1,60.

Values taken from EP0117797A1, “Nitroso ureas, process for their preparation and their therapeutic use” (CENTRE NATIONAL DE LA RECHERCHE SCIENTIFIQUE, priority 1983, dated 1984).
